Assays:
3-NP treated rats = assay: Systemic 3-nitropropionic acid (3-NP) model in rats, nocturnal activity; assay type: in vivo, rat
Experimental: A typical animal model is the systemic 3-nitropropionic acid (3-NP) model in rats according to C. V. Borlongan et al., Brain Res., 1995; 697: 254-257. Rats are treated with injections of the selective striatal neurotoxin 3-NP i.p. every fourth day (C. V. Borlongan et al., Brain Res. Protocols, 1997; 1: 253-257). After two injections of 3-NP, rats display nocturnal hyperactivity reflecting symptoms of early Huntington's disease, whereas rats treated with four injections of 3-NP display nocturnal akinesia (hypoactivity) reflecting symptoms of late Huntington's disease. Nocturnal activity is automatically measured in conventional acitivity cages by infrared beams. (−)-(R)-2-{4-[[3,4-dihydro-2H-benzopyran-2-yl)-methyl]amino]butyl}-1,2-benzoisothiazol-3-(2H)-on-1,1-dioxide or a pharmaceutical acceptable salt thereof reduced both the nocturnal hyperactivity and akinesia.

[1] = tested on: oxotremorine-induced tremor; assay: Oxotremorine-induced tremor (rating scale); assay type: in vivo
Experimental: A typical animal model for drug-induced tremors is the oxotremorine-induced tremor (e.g. H. Hallberg and O. Almgren, Acta Physiol. Scand., 1987; 129: 407-13; J. G. Clement and W. R. Dyck, J. Pharmacol. Meth., 1989; 22: 25-36). Oxotremorine induces tremor which is measured by a rating scale. (−)-(R)-2-{4-[[3,4-dihydro-2H-benzopyran-2-yl)-methyl]amino]butyl}-1,2-benzoisothiazol-3-(2H)-on-1,1-dioxide or one of its pharmaceutically acceptable salt inhibit oxotremorine-induced tremors.

[2] = tested on: reserpinized rat or mouse; assay: Reserpinized rat or mouse, akinesia in activity meters; assay type: in vivo; conditions: 24 h after reserpine
Experimental: A typical animal model is the reserpinized rat or mouse (e.g. M. S. Starr and B. S. Starr, J. Neural Transm.—Park. Dis. Dement. Sect., 1994; 7: 133-142; M. Gossel et al., J. Neural Transm.—Park. Dis. Dement. Sect., 1995; 10: 27-39; N. R. Hughes et al., Mov. Disord., 1998; 13: 228-233). Reserpine is a potent depleter of monoamines and produces nearly complete akinesia in both species. Prominent 24 h after application, the distance travelled and the time active is nearly zero as measured in conventional activity meters.

## O=C1c2ccccc2S(=O)(=O)N1CCCCNC[C@H]1CCc2ccccc2O1 [(−)-(R)-2-{4-[[3,4-dihydro-2H-benzopyran-2-yl)-methyl]amino]butyl}-1,2-benzoisothiazol-3-(2H)-on-1,1-dioxide]
3-NP treated rats; after four injections of 3-NP (late Huntington's disease)
  nocturnal akinesia (hypoactivity): reduced
3-NP treated rats; after two injections of 3-NP (early Huntington's disease)
  nocturnal hyperactivity: reduced
[1]
  oxotremorine-induced tremors: inhibit
[2]
  akinesia: dose-dependently reduced akinesia
[2]; activity meters
  distance travelled and time active: restored distance travelled and time active to about the level of normal animals
